We go through 17 compounds from ChEMBL document CHEMBL5252660 (ACS Med Chem Lett, 2023).

Usually inhibition stands for the percentage by which the read-out fell short of the control. A high value points to a strong effect. What is called IC50 is the concentration needed to halve the response being measured. In general, AUC(0-t) refers to the area under the concentration-time curve up to a stated or last time point. In general, logD refers to the decadic logarithm of the distribution of all forms, ionised or not, between an organic phase and buffer at a given pH. High values mean a more lipophilic compound, low ones a more hydrophilic compound.

Where only a bound is given, the exact number is not on record here.

Chain of Epidermal growth factor receptor (P00533 whole entry, looked up, stated change not applied): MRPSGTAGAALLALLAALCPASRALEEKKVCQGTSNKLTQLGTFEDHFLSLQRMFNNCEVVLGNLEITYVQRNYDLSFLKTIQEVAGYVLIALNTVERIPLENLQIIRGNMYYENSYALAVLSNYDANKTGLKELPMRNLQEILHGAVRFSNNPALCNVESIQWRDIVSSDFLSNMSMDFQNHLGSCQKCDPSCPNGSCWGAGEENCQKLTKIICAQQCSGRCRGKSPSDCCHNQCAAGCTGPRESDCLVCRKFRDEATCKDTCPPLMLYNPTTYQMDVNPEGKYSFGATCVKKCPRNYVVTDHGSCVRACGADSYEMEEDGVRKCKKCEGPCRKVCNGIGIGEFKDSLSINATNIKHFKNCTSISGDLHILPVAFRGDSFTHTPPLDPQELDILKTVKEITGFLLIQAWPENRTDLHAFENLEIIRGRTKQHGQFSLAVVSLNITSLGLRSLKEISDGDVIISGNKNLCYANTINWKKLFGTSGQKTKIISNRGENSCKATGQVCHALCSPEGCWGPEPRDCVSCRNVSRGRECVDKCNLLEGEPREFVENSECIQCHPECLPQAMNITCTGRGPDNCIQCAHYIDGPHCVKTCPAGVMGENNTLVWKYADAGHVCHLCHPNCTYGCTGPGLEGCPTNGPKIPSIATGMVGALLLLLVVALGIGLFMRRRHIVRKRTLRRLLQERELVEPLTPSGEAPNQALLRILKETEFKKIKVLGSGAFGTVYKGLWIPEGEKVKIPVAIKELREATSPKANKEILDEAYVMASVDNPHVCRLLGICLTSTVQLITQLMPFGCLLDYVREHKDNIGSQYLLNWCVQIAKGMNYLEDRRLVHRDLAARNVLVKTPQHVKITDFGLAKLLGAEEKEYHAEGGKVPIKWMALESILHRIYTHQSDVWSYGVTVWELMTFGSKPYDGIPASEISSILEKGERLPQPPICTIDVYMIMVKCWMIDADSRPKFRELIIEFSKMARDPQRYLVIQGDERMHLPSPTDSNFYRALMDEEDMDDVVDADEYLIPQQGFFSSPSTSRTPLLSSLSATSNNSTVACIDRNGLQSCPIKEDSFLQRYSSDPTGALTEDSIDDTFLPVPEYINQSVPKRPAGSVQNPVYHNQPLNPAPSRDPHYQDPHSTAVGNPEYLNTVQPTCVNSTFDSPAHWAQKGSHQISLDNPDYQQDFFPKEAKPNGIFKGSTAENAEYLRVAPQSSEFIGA
Chain of Vascular endothelial growth factor receptor 2 (P35968 whole entry): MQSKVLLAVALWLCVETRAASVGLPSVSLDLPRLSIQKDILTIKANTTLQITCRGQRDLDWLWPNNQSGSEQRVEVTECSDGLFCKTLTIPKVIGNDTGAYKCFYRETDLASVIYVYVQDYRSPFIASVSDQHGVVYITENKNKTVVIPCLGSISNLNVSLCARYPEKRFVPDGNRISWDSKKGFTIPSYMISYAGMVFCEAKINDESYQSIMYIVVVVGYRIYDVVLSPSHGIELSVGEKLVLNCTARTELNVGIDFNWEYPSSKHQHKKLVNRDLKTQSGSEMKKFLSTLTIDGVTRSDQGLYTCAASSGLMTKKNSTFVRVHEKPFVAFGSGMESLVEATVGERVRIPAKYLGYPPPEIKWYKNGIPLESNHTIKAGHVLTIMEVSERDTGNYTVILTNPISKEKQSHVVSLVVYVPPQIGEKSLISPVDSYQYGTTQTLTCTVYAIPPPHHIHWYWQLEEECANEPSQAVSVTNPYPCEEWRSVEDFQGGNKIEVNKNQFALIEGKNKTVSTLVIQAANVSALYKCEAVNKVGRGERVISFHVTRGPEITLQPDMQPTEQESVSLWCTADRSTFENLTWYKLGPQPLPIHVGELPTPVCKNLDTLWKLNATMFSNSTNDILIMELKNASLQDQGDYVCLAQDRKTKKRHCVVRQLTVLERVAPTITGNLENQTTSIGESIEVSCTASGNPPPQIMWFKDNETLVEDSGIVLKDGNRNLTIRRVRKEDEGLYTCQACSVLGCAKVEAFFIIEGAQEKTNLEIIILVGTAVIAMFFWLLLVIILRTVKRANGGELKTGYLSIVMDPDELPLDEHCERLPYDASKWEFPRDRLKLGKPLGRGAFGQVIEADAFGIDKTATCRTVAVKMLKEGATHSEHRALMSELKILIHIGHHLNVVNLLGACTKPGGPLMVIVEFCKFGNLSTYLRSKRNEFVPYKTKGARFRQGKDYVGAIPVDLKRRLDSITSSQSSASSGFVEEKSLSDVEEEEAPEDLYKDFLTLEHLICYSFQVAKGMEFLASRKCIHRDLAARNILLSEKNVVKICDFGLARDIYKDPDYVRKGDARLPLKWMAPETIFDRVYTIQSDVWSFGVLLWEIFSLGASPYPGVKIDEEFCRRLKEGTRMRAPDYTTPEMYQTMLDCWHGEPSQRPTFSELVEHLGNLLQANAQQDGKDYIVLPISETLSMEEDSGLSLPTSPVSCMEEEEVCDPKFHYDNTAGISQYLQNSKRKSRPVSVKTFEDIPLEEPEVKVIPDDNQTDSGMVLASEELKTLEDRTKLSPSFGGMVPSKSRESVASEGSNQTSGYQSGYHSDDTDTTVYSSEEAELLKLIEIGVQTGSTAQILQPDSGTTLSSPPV
Chain of Fibroblast growth factor receptor 3 (Homo sapiens) (P22607 23-806 limits assumed): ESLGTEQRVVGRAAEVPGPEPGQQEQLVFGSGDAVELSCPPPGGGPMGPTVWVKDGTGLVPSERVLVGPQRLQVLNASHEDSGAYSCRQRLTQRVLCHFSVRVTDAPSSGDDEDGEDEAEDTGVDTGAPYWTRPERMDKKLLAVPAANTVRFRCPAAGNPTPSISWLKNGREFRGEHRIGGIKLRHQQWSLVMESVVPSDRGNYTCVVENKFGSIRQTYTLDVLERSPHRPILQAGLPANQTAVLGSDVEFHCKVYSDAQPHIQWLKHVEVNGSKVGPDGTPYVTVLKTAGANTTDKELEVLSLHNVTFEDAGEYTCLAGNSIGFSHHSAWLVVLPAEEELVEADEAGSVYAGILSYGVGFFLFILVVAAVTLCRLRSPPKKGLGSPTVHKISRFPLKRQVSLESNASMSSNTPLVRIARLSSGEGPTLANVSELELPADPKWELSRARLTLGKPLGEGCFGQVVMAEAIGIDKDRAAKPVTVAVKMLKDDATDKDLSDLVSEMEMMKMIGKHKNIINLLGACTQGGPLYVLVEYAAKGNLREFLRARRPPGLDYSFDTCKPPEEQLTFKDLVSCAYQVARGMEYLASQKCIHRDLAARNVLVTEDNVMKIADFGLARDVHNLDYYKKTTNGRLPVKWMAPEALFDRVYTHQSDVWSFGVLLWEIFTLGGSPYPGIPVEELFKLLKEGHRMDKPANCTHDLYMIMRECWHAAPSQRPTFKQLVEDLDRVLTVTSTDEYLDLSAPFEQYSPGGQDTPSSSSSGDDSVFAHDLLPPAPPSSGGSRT

One series addresses Fibroblast growth factor receptor 3 (Homo sapiens) (UniProt P22607). Briefly: Inhibition of wild type human partial length FGFR3 (R442 to S771 residues) expressed in bacterial expression system at 100 uM by Kinome scan method relative to control.
Details: not given
`C=CC(=O)N1CC[C@H](n2nc(C#Cc3cc(OC)cc(OC)c3)c3c(N)ncnc32)C1` [FUTIBATINIB] returned an inhibition of 97.8%.

The subject of the next series is SNU-16. Briefly: cells. Particulars: Homo sapiens, SNU-16, 72 h.
Description: Cytotoxicity against human SNU-16 cells assessed as inhibition of cell growth measured after 72 hrs by cell titer glo assay
Compound `COc1cc(C#Cc2nn([C@H]3CCN(C(=O)/C=C/CN(C)C)C3)c3ncnc(N)c23)cc(OC)c1` gave an IC50 of 43 nM.

For `COc1cc(C#Cc2nn(C3CN(C(=O)/C=C/CN(C)C)C3)c3ncnc(N)c23)cc(OC)c1`, it took 8.4 nM to reach half-maximal inhibition (IC50).

In turn, `C=CC(=O)NCCn1nc(C#Cc2cc(OC)cc(OC)c2)c2c(N)ncnc21` gave an IC50 of 362 nM.

Take `C=CC(=O)N1CC[C@@H](n2nc(C#Cc3cc(OC)cc(OC)c3)c3c(N)ncnc32)C1`: the IC50 is 113 nM.

Take `C=CC(=O)N1CC(Cn2nc(C#Cc3cc(OC)cc(OC)c3)c3c(N)ncnc32)C1`: half-maximal inhibition (IC50) was put at 32 nM.

With `C=CC(=O)N1CC[C@H](n2nc(C#Cc3cc(OC)cc(OC)c3)c3c(N)ncnc32)C1` [FUTIBATINIB], the IC50 came out at 3.7 nM.

As to `C=CC(=O)N1CCC(n2nc(C#Cc3cc(OC)cc(OC)c3)c3c(N)ncnc32)CC1`, the midpoint of inhibition, the IC50, lay at 33 nM.

`C=CC(=O)N1CC(n2nc(C#Cc3cc(OC)cc(OC)c3)c3c(N)ncnc32)C1` had an IC50 of 7.4 nM.

Turning to `CCC(=O)N1CC[C@H](n2nc(C#Cc3cc(OC)cc(OC)c3)c3c(N)ncnc32)C1`, it took 1420 nM to reach half-maximal inhibition (IC50).

A further series has as its target Vascular endothelial growth factor receptor 2 (Homo sapiens, UniProt P35968).
Experiment: not given
Details: not given
As for `C=CC(=O)N1CC[C@@H](n2nc(C#Cc3cc(OC)cc(OC)c3)c3c(N)ncnc32)C1`, it took 1490 nM to reach half-maximal inhibition (IC50).

In turn, `C=CC(=O)N1CC[C@H](n2nc(C#Cc3cc(OC)cc(OC)c3)c3c(N)ncnc32)C1` [FUTIBATINIB] showed an IC50 of 2360 nM.

The subject of the next series is SNU1. Briefly: cells. The following applies: Homo sapiens, SNU1, 72 h.
Description: Cytotoxicity against human SNU1 cells assessed as inhibition of cell growth measured after 72 hrs by cell titer glo assay
Regarding `COc1cc(C#Cc2nn([C@H]3CCN(C(=O)/C=C/CN(C)C)C3)c3ncnc(N)c23)cc(OC)c1`, the half-inhibitory concentration (IC50) is > 5000 nM.

As to `COc1cc(C#Cc2nn(C3CN(C(=O)/C=C/CN(C)C)C3)c3ncnc(N)c23)cc(OC)c1`, the 50% inhibitory concentration (IC50) was > 5000 nM.

Take `C=CC(=O)NCCn1nc(C#Cc2cc(OC)cc(OC)c2)c2c(N)ncnc21`: the IC50 was > 5000 nM.

For the compound `C=CC(=O)N1CC[C@@H](n2nc(C#Cc3cc(OC)cc(OC)c3)c3c(N)ncnc32)C1`, the IC50 is > 5000 nM.

As to `C=CC(=O)N1CC(Cn2nc(C#Cc3cc(OC)cc(OC)c3)c3c(N)ncnc32)C1`, the half-maximal inhibitory concentration (IC50) is > 5000 nM.

As to `C=CC(=O)N1CC[C@H](n2nc(C#Cc3cc(OC)cc(OC)c3)c3c(N)ncnc32)C1` [FUTIBATINIB], the IC50 was > 5000 nM.

As to `C=CC(=O)N1CCC(n2nc(C#Cc3cc(OC)cc(OC)c3)c3c(N)ncnc32)CC1`, the IC50 is > 5000 nM.

With `C=CC(=O)N1CC(n2nc(C#Cc3cc(OC)cc(OC)c3)c3c(N)ncnc32)C1`, the IC50 was > 5000 nM.

Regarding `CCC(=O)N1CC[C@H](n2nc(C#Cc3cc(OC)cc(OC)c3)c3c(N)ncnc32)C1`, the half-maximal inhibitory concentration (IC50) was > 5000 nM.

Tested on in a further series: not listed separately
Briefly: Drug exposure in BALB/cA mouse assessed as AUC(0 to 6 hrs) of drug at 50 mg/kg, po measured after 6 hrs by LC-MS analysis. It is filed as ADME, organism-based. Also on record: dose 50 mg/kg, time 6 hrs, route po. Particulars: in vivo.
On to `COc1cc(C#Cc2nn(C3CN(C(=O)/C=C/CN(C)C)C3)c3ncnc(N)c23)cc(OC)c1`, for which the AUC(0-t) at 6 h worked out at 1.27 µM·h.

As for `C=CC(=O)N1CC[C@H](n2nc(C#Cc3cc(OC)cc(OC)c3)c3c(N)ncnc32)C1` [FUTIBATINIB], the area under the curve AUC(0-t) at 6 h was determined as 23.9 µM·h.

On to `C=CC(=O)N1CC(n2nc(C#Cc3cc(OC)cc(OC)c3)c3c(N)ncnc32)C1`, for which the AUC(0-t) at 6 h was 0.07 µM·h.

In the next series the target is Insulin receptor (Homo sapiens) (UniProt P06213). Description: Inhibition of human wild type partial length INSR (P997 to E1318 resides) expressed in mammalian expression system at 100 uM by Kinome scan method relative to control.
Details: not given
`C=CC(=O)N1CC[C@H](n2nc(C#Cc3cc(OC)cc(OC)c3)c3c(N)ncnc32)C1` [FUTIBATINIB] displayed an inhibition of 55%.

The next series deals with T1, Mitogen-activated protein kinase 12 (Homo sapiens) (UniProt P53778).
T1 sequence (whole entry): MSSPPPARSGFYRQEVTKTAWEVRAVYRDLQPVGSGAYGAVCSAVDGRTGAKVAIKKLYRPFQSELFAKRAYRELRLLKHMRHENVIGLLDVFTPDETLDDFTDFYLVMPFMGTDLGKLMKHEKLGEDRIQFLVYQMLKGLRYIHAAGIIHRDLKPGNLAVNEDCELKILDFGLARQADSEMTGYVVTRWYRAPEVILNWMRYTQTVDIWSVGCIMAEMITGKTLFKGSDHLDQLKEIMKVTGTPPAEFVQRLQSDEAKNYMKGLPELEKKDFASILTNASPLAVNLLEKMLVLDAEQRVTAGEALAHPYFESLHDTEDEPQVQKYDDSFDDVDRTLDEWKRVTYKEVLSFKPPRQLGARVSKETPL
Description: Inhibition of human full length wild type MAPK12 (M1 to L367 residues) expressed in mammalian expression system at 100 uM by Kinome scan method relative to control.
Details: not given
Regarding `C=CC(=O)N1CC[C@H](n2nc(C#Cc3cc(OC)cc(OC)c3)c3c(N)ncnc32)C1` [FUTIBATINIB], the inhibition came out at 69%.

For a further series, the target named is Fibroblast growth factor receptor 2 (Homo sapiens, UniProt P21802).
Chain of Fibroblast growth factor receptor 2 (P21802 whole entry): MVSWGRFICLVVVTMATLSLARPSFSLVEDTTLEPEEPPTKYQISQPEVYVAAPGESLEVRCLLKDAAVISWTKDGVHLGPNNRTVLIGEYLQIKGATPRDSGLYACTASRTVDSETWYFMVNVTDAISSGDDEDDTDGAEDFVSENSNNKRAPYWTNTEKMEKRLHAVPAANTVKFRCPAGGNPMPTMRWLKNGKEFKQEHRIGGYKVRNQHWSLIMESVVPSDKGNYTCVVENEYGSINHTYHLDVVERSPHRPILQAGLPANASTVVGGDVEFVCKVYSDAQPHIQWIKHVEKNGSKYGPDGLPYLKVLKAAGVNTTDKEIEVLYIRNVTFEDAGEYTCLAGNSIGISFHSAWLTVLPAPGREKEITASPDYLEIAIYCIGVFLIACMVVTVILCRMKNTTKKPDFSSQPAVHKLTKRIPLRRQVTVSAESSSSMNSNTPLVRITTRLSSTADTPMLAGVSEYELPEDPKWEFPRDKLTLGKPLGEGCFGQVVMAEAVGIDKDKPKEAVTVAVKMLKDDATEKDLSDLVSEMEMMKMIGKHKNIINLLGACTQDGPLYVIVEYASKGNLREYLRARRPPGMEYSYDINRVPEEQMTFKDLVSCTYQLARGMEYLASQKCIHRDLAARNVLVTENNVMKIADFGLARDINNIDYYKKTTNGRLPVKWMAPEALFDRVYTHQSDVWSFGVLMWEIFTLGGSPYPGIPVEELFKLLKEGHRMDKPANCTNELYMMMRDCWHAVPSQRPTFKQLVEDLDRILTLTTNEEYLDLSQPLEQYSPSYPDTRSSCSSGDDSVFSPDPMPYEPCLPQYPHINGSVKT
Experiment: not given
Details: not given
Regarding `C=CC(=O)N1CC[C@@H](n2cc(-c3cnc4ccccc4c3)c3c(N)ncnc32)C1`, the IC50 was found to be 313 nM.

Turning to `C=CC(=O)N1CC[C@H](n2nc(CCc3cc(OC)cc(OC)c3)c3c(N)ncnc32)C1`, the IC50 amounted to 239 nM.

Take `C=CC(=O)N1CC[C@H](n2nc(-c3cnc4ccccc4c3)c3c(N)ncnc32)C1`: the IC50 was 255 nM.

Regarding `C=CC(=O)N1CCC(n2cc(-c3cnc4ccccc4c3)c3c(N)ncnc32)C1` (racemic), the IC50 came out at 57 nM.

For the compound `C=CC(=O)N1CC[C@@H](n2nc(-c3cnc4ccccc4c3)c3c(N)ncnc32)C1`, the IC50 is 2260 nM.

Compound `C=CC(=O)N1CC[C@H](n2cc(-c3cnc4ccccc4c3)c3c(N)ncnc32)C1` had an IC50 of 17 nM.

Compound `C=CC(=O)N1CC[C@H](n2nc(C(=O)Nc3cc(OC)cc(OC)c3)c3c(N)ncnc32)C1` gave an IC50 of 670 nM.

Tested on in a further series: not listed separately
Briefly: Microsomal stability in mouse liver microsomes assessed as parent compound remaining measured after 30 mins in presence of NADPH generating system by LC-MS analysis. Particulars: read-out: Stability. Type of series: ADME, Microsome. (In general: Liver microsomes are a subcellular fraction often used to study metabolism.)
With `COc1cc(C#Cc2nn(C3CN(C(=O)/C=C/CN(C)C)C3)c3ncnc(N)c23)cc(OC)c1`, the remaining at 0.5 h came to 98%.

For the compound `C=CC(=O)N1CC[C@H](n2nc(C#Cc3cc(OC)cc(OC)c3)c3c(N)ncnc32)C1` [FUTIBATINIB], the remaining at 0.5 h stood at 69%.

As for `C=CC(=O)N1CC(n2nc(C#Cc3cc(OC)cc(OC)c3)c3c(N)ncnc32)C1`, the remaining at 0.5 h is 92%.

Tested on in another series: not listed separately
Briefly: Lipophilicity, logD of the compound at pH 7.4. It is filed as physicochemical. The following applies: buffer.
As to `COc1cc(C#Cc2nn(C3CN(C(=O)/C=C/CN(C)C)C3)c3ncnc(N)c23)cc(OC)c1`, the logD was found to be 2.3.

Consider `C=CC(=O)N1CC[C@H](n2nc(C#Cc3cc(OC)cc(OC)c3)c3c(N)ncnc32)C1` [FUTIBATINIB], for which the logD worked out at 3.4.

For `C=CC(=O)N1CC(n2nc(C#Cc3cc(OC)cc(OC)c3)c3c(N)ncnc32)C1`, the logD is 3.

For a further series, the target named is Fibroblast growth factor receptor 1 (Homo sapiens) (UniProt P11362). Briefly: Inhibition of partial length wild type human FGFR1 (P357 to V669 residues) expressed in bacterial expression system at 100 uM by Kinome scan method relative to control.
Chain of Fibroblast growth factor receptor 1 (Homo sapiens) (P11362 22-822 limits assumed): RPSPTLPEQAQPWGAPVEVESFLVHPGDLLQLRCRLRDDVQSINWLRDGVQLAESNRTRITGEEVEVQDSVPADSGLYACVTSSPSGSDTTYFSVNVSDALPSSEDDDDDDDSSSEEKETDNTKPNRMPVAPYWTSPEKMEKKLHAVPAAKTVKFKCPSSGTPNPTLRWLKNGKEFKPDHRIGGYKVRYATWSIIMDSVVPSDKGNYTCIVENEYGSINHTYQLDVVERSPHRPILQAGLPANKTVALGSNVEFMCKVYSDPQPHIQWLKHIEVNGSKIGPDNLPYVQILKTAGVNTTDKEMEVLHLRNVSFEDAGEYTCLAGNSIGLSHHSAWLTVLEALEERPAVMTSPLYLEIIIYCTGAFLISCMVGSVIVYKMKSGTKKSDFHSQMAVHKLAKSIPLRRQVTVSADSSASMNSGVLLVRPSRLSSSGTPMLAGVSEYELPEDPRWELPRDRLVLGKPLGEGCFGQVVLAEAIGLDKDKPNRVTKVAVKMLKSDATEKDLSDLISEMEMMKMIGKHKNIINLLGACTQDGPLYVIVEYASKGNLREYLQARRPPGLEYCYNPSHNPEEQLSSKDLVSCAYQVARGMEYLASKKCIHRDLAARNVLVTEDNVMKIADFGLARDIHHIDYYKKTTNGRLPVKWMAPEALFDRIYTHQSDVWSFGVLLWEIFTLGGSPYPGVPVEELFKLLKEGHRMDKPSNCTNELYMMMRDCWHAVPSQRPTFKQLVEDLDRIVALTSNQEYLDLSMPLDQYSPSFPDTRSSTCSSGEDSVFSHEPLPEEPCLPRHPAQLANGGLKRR
Details: not given
In turn, `C=CC(=O)N1CC[C@H](n2nc(C#Cc3cc(OC)cc(OC)c3)c3c(N)ncnc32)C1` [FUTIBATINIB] yielded an inhibition of 99.1%.

The next series has as its target Epidermal growth factor receptor (Homo sapiens, UniProt P00533, EX19DEL/T790M). Briefly: Inhibition of recombinant human EGFR del19/T790M using biotinEEPLYWSFPAKKK-NH2 as substrate incubated for 120 mins by TR-FRET assay.
Details: not given
With `C=CC(=O)N1CC[C@H](n2nc(-c3cc(OC)cc(OC)c3)c3c(N)ncnc32)C1`, the 50% inhibitory concentration (IC50) is > 5000 nM.

In the case of `C=CC(=O)N1CC[C@@H](n2cc(-c3cnc4ccccc4c3)c3c(N)ncnc32)C1`, the IC50 stood at 0.4 nM.

In the case of `C=CC(=O)N1CC[C@H](n2nc(CCc3cc(OC)cc(OC)c3)c3c(N)ncnc32)C1`, the IC50 was > 5000 nM.

As to `C=CC(=O)N1CC[C@H](n2nc(-c3cnc4ccccc4c3)c3c(N)ncnc32)C1`, the IC50 worked out at 741 nM.

Consider `C=CC(=O)N1CCC(n2cc(-c3cnc4ccccc4c3)c3c(N)ncnc32)C1` (racemic), for which the IC50 turned out to be 1.2 nM.

As to `C=CC(=O)N1CC[C@@H](n2nc(-c3cnc4ccccc4c3)c3c(N)ncnc32)C1`, the IC50 worked out at 5.4 nM.

As for `C=CC(=O)N1CC[C@H](n2cc(-c3cnc4ccccc4c3)c3c(N)ncnc32)C1`, the IC50 is 111 nM.

For `C=CC(=O)N1CC[C@H](n2nc(C#Cc3cc(OC)cc(OC)c3)c3c(N)ncnc32)C1` [FUTIBATINIB], the 50% inhibitory concentration (IC50) was > 5000 nM.

On to `C=CC(=O)N1CC[C@H](n2nc(C(=O)Nc3cc(OC)cc(OC)c3)c3c(N)ncnc32)C1`, for which the IC50 is > 5000 nM.

With `CCC(=O)N1CC[C@H](n2nc(C#Cc3cc(OC)cc(OC)c3)c3c(N)ncnc32)C1`, the IC50 is > 5000 nM.

Tested on in the next series: not listed separately
Briefly: Microsomal stability in human liver microsomes assessed as parent compound remaining measured after 30 mins in presence of NADPH generating system by LC-MS analysis. The following applies: read-out: Stability. Type of series: ADME, Microsome.
Take `COc1cc(C#Cc2nn(C3CN(C(=O)/C=C/CN(C)C)C3)c3ncnc(N)c23)cc(OC)c1`: the remaining at 0.5 h is 77%.

For the compound `C=CC(=O)N1CC[C@H](n2nc(C#Cc3cc(OC)cc(OC)c3)c3c(N)ncnc32)C1` [FUTIBATINIB], the remaining at 0.5 h was found to be 66%.

`C=CC(=O)N1CC(n2nc(C#Cc3cc(OC)cc(OC)c3)c3c(N)ncnc32)C1`: the remaining at 0.5 h is 83%.
